Reference: PMC12657321, “Pre-clinical evaluation of a potent and effective Pin1-degrading agent in pancreatic cancer” (Molecular Therapy Oncology, 2025)
Non-standard residues stand in square brackets, D forms with d. Residues, ends and D or L forms follow the SMILES beside them. *: point of attachment. Trp(6-Cl) = N[C@@H](Cc1c[nH]c2cc(Cl)ccc12)C(=O)O; Pip = O=C(O)[C@@H]1CCCCN1; ClAc = O=C(CCl)*

Tests used:
Pin1 in MIA PaCa-2 cells = molecular target: T1, Pin1 in MIA PaCa-2 cells (Homo sapiens, UniProt Q13526); experiment: Pin1 degradation by western blot in MIA PaCa-2 cells; type: cell-based; conditions: MIA PaCa-2, 0.5-15 μM for 24 h, Pin1 relative to β-actin
T1 construct: endogenous in cells; host or cells: BxPC3, MIA PaCa-2
T1 sequence (Q13526 whole entry): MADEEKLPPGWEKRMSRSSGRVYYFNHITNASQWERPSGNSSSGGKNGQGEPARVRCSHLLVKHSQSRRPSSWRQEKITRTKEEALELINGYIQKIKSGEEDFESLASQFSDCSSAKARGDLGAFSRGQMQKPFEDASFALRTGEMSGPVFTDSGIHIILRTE
Experimental: (§1) To ascertain that the plasma-stable agent 164B8 retained its ability to induce Pin1 degradation in cells, we tested it in three pancreatic cancer cell lines—human BxPC3 and MIA PaCa-2, and the mouse pancreatic cancer cell line KPC—using western blot analysis (Figure 2).
(§2) Figure 2 Degradation of Pin1 in different cell lines in response to 164B8 treatment BxPC3, MIA PaCa-2, and KPC were each treated with 0.1% DMSO and concentrations of 164B8 ranging between 0.5 and 15 μM for 24 h, and Pin1 levels were quantified with respect to β-actin using a specific anti-Pin1 antibody and western blotting (uncropped blots are reported in Figure S6).
(§3) At the end of the treatments, cells were lysed with a lysis buffer containing 20 mM Tris (pH 7.4), 1% Triton X-100, 5 mM EDTA, 0.1% sodium dodecyl sulfate (SDS), 1% IGEPAL, 0.5% sodium deoxycholate, 120 mM NaCl, and a protease inhibitor cocktail and PhosSTOP (Sigma-Aldrich). Lysates were then centrifuged at 16,000 × g for 20 min at 4°C, and the supernatants were collected. Protein concentrations were determined using the Pierce BCA Protein Assay Kit (Thermo Fisher Scientific) according to the manufacturer’s protocol. For traditional western blotting (Figure 2), samples were loaded onto precast Bis-Tris gels and subsequently transferred onto PVDF membranes. […]

Pin1 in KPC cells = molecular target: T2, Pin1 in KPC cells (Mus musculus, UniProt Q9QUR7); experiment: Pin1 degradation by western blot in KPC cells; type: cell-based; conditions: 0.5-15 μM for 24 h, Pin1 relative to β-actin
T2 construct: endogenous in cells; host or cells: KPC
T2 sequence (Q9QUR7 whole entry): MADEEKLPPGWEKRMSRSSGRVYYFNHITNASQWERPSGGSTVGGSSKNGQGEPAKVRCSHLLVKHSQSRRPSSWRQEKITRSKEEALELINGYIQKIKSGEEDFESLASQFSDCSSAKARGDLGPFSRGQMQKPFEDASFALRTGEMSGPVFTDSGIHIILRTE
Experimental: as §1, §2, §3

Pin1 in BxPC3 cells [1] = molecular target: T3, Pin1 in BxPC3 cells (Homo sapiens, UniProt Q13526); experiment: Pin1 degradation by western blot in BxPC3 cells; type: cell-based; design: endogenous in cells; host or cells: BxPC3, MIA PaCa-2; conditions: BxPC3, 0.5-15 μM for 24 h, Pin1 relative to β-actin
T3 sequence (Q13526 whole entry): as the sequence (Q13526 whole entry) above
Experimental: as §1, §2, §3

Pin1 in BxPC3 cells [2] = molecular target: T3, Pin1 in BxPC3 cells; experiment: Pin1 recovery after degradation, capillary electrophoresis immunoassay, BxPC3; type: cell-based; design: endogenous in cells; host or cells: BxPC3; conditions: BxPC3, 5 μM for 24 h, washed, serum-free media, 48 h after wash; two independent replicates
Experimental: To preliminarily assess the duration of Pin1 degradation in cancer cells, BxPC3 and KPC cells were treated with 164B8 for 24 h, washed, and then incubated in serum-free medium for various time points. Pin1 levels were then measured by capillary electrophoresis (Figure 3).
Figure 3 Western blot-like images of Pin1 recovery after degradation by 164B8 using capillary electrophoresis immunoassay (A) BxPC3 cells were pretreated with either 0.1% DMSO or 5 μM 164B8 for 24 h before washing and incubating in serum-free media to evaluate Pin1 recovery at 0, 6, 12, 24, and 48 h. (B) The experiment was performed in two independent replicates, and the results are plotted with the associated standard deviation. (C and D), as in (A) and (B), respectively, but testing the agents against the KPC cell line.
For capillary electrophoresis immunoassays (Figure 3), following protein quantification via the bicinchoninic acid (BCA) assay, the Jess Simple Western instrument (Protein Simple, Bio-Techne, Minneapolis, MN, USA) was utilized according to the manufacturer’s protocol for the 12–230 kDa separation module (SM-W001, Bio-Techne). […] The resulting data were analyzed using Compass for Simple Western software (v.6.3.0), utilizing the default high dynamic range 4.0 image settings and Gaussian peak fitting to obtain the area under each curve for quantification and analysis.

human Pin1 = molecular target: T4, human Pin1 (Homo sapiens, UniProt Q13526); experiment: Denaturation thermal shift measurements (SYPRO Orange); type: binding; conditions: thermal denaturation shift of Pin1, 20 μM protein, protein:ligand 1:2, 50 mM phosphate pH 7.5, 150 mM NaCl, 3% DMSO, 10-95°C, quadruplicates
T4 construct: Residues 1–163 of human Pin1 were expressed with a thrombin cleavage site and a HisTag at the N-terminus; 6xHis (N); thrombin cleavage site (N); made in house; host or cells: E. coli
T4 sequence (Q13526 whole entry, the tested form may be a part): as the sequence (Q13526 whole entry) above
Experimental: To assess the ability of our agents to bind and inhibit Pin1, we developed a robust biochemical assay based on the dissociation-enhanced lanthanide fluorescent immunoassay (DELFIA) platform. In our implementation, we used a biotinylated form of a known Pin1-binding peptide (D-peptide) to monitor the ability of test agents to inhibit the interaction between Pin1 and the D-peptide at various incubation times, as described previously.[32] […] In addition, as mentioned above and reported recently, we tested the ability of the agents to reduce Pin1 thermal stability in vitro by thermal denaturation measurements.[32] […] Pin1 unfolding causes a nonspecific interaction between the water-quenched fluorescent dye and the protein’s exposed hydrophobic residues, resulting in increased fluorescence. A shift in the thermal denaturation temperature between the free and bound protein is interpreted as a stabilization or destabilization event induced by the test ligand. […] To further assess whether these agents could be suitable for in vivo efficacy studies, we also performed stability assays in aqueous buffer and in plasma from various species (Table S2, Figure S2). We tested the stability of our agents in plasma from multiple mouse strains as well as in human plasma (Figure S2), given the peptide nature of the compounds. […]

CNC(=O)[C@H](Cc1c[nH]c2ccccc12)NC(=O)[C@@H]1CCCCN1C(=O)[C@H](Cc1c[nH]c2cc(Cl)ccc12)NC(=O)CCl [164B8] (ClAc-[Trp(6-Cl)]-[Pip]-Trp-NHMe)
DC50 of Pin1 degradation (Pin1 in MIA PaCa-2 cells): sub-micromolar
DC50 of Pin1 degradation (Pin1 in KPC cells): sub-micromolar
DC50 of Pin1 degradation (Pin1 in BxPC3 cells [1]): sub-micromolar
Pin1 levels restored after exposure and wash-out (Pin1 in BxPC3 cells [2]): approximately 50%
ΔTm (°C) (human Pin1): −9.55 ± 0.19 °C
